Test results: the supplement of paper PMC10307832

Experiments:
Assay in all cases: relative viability (nuclei count vs DMSO), 5 days (fraction); higher = more cells survive
A-427 = system: A-427
In short: (§1)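 Values are medians from duplicate plates. Each reflects relative viability, defined as the nuclei count of treated wells over that of vehicle wells. Lung cancer cell lines in 1536-well plates were pin-tool dosed one day after seeding with one drug alone or with a fixed anchor-drug dose plus five library-drug doses (not always all listed) in √10 steps, then fixed, stained and imaged at 4× after 5 days.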

ABC-1 = system: ABC-1
In short: as §1

EPLC-272H = system: EPLC-272H
In short: as §1

HCC-15 = system: HCC-15
In short: as §1

LC-2-ad = system: LC-2-ad
In short: as §1

LK-2 = system: LK-2
In short: as §1

NCI-H1734 = system: NCI-H1734
In short: as §1

NCI-H1793 = system: NCI-H1793
In short: as §1

NCI-H1915 = system: NCI-H1915
In short: as §1

NCI-H1944 = system: NCI-H1944
In short: as §1

NCI-H2009 = system: NCI-H2009
In short: as §1

NCI-H2023 = conditions: first compound 0.001 µM
In short: as §1

## Cc1cn(-c2cc(NC(=O)c3ccc(C)c(Nc4nccc(-c5cccnc5)n4)c3)cc(C(F)(F)F)c2)cn1 [Nilotinib] + Nc1ncn([C@H]2C[C@H](O)[C@@H](CO)O2)c(=O)n1 [Decitabine] (partner 2 µM)
A-427; first compound 0.001 µM
  relative viability: 0.586
A-427; first compound 0.003162 µM
  relative viability: 0.565
A-427; first compound 0.01 µM
  relative viability: 0.658
A-427; first compound 0.03162 µM
  relative viability: 0.663
A-427; first compound 0.1 µM
  relative viability: 0.695
ABC-1; first compound 0.001 µM
  relative viability: 0.987
ABC-1; first compound 0.003162 µM
  relative viability: 0.946
ABC-1; first compound 0.01 µM
  relative viability: 1.05
ABC-1; first compound 0.03162 µM
  relative viability: 0.978
ABC-1; first compound 0.1 µM
  relative viability: 0.96
EPLC-272H; first compound 0.001 µM
  relative viability: 0.294
EPLC-272H; first compound 0.003162 µM
  relative viability: 0.368
EPLC-272H; first compound 0.01 µM
  relative viability: 0.436
EPLC-272H; first compound 0.03162 µM
  relative viability: 0.341
EPLC-272H; first compound 0.1 µM
  relative viability: 0.338
HCC-15; first compound 0.001 µM
  relative viability: 0.569
HCC-15; first compound 0.003162 µM
  relative viability: 0.77
HCC-15; first compound 0.01 µM
  relative viability: 0.718
HCC-15; first compound 0.03162 µM
  relative viability: 0.481
HCC-15; first compound 0.1 µM
  relative viability: 0.309
LC-2-ad; first compound 0.001 µM
  relative viability: 0.8
LC-2-ad; first compound 0.003162 µM
  relative viability: 0.982
LC-2-ad; first compound 0.01 µM
  relative viability: 0.796
LC-2-ad; first compound 0.03162 µM
  relative viability: 0.859
LC-2-ad; first compound 0.1 µM
  relative viability: 0.803
LK-2; first compound 0.001 µM
  relative viability: 0.327
LK-2; first compound 0.003162 µM
  relative viability: 0.338
LK-2; first compound 0.01 µM
  relative viability: 0.252
LK-2; first compound 0.03162 µM
  relative viability: 0.236
LK-2; first compound 0.1 µM
  relative viability: 0.26
NCI-H1734; first compound 0.001 µM
  relative viability: 0.526
NCI-H1734; first compound 0.003162 µM
  relative viability: 0.605
NCI-H1734; first compound 0.01 µM
  relative viability: 0.629
NCI-H1734; first compound 0.03162 µM
  relative viability: 0.576
NCI-H1734; first compound 0.1 µM
  relative viability: 0.455
NCI-H1793; first compound 0.001 µM
  relative viability: 0.49
NCI-H1793; first compound 0.003162 µM
  relative viability: 0.263
NCI-H1793; first compound 0.01 µM
  relative viability: 0.87
NCI-H1793; first compound 0.03162 µM
  relative viability: 0.708
NCI-H1793; first compound 0.1 µM
  relative viability: 0.516
NCI-H1915; first compound 0.001 µM
  relative viability: 0.28
NCI-H1915; first compound 0.003162 µM
  relative viability: 0.271
NCI-H1915; first compound 0.01 µM
  relative viability: 0.255
NCI-H1915; first compound 0.03162 µM
  relative viability: 0.318
NCI-H1915; first compound 0.1 µM
  relative viability: 0.325
NCI-H1944; first compound 0.001 µM
  relative viability: 0.445
NCI-H1944; first compound 0.003162 µM
  relative viability: 0.505
NCI-H1944; first compound 0.01 µM
  relative viability: 0.512
NCI-H1944; first compound 0.03162 µM
  relative viability: 0.591
NCI-H1944; first compound 0.1 µM
  relative viability: 0.537
NCI-H2009; first compound 0.001 µM
  relative viability: 0.372
NCI-H2009; first compound 0.003162 µM
  relative viability: 0.393
NCI-H2009; first compound 0.01 µM
  relative viability: 0.412
NCI-H2009; first compound 0.03162 µM
  relative viability: 0.406
NCI-H2009; first compound 0.1 µM
  relative viability: 0.421
NCI-H2023
  relative viability: 0.245
